Read-outs that look alike come from different tables or passages of the source.
How the values were obtained:
[1] = target: T1, human HCN4 channel (Homo sapiens, UniProt Q9Y3Q4); assay: Dose response of blockade of hyperpolarization (MPSD FLIPR), HCN4; format: cell-based
T1 construct: expressed in transfected cells; host or cells: CHO-K1
T1 sequence (Q9Y3Q4 1-1203): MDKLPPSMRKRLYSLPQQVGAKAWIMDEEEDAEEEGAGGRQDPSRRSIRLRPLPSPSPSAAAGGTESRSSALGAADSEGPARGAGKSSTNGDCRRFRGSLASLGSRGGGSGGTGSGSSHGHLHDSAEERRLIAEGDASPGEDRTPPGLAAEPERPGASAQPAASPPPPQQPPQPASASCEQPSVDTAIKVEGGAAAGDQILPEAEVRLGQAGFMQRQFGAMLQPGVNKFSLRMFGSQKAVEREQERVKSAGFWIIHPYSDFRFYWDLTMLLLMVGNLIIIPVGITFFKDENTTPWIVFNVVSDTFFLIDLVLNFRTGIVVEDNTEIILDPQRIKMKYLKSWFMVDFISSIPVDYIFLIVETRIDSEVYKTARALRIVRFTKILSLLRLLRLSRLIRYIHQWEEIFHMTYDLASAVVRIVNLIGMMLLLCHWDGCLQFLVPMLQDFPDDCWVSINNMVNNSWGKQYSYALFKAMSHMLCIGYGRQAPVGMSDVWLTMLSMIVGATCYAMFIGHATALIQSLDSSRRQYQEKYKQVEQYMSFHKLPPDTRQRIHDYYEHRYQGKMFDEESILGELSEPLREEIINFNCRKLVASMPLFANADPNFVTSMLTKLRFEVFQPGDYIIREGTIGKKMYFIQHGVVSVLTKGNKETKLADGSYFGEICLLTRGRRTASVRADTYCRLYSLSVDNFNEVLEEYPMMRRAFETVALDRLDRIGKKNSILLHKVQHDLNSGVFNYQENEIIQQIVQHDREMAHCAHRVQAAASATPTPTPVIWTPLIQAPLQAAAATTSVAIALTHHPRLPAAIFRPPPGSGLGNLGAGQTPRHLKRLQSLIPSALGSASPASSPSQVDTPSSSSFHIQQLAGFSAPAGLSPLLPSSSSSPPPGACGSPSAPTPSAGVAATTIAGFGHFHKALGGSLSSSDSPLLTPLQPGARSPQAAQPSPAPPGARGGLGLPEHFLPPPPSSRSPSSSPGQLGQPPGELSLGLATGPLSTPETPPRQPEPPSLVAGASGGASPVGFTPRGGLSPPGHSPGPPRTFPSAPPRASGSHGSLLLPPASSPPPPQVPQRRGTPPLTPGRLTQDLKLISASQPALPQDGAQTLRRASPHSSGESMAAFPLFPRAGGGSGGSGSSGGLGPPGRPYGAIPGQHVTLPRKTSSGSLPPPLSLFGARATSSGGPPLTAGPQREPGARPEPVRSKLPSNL
Description: HEK-293H cells stably expressing a human HCN1 channel were plated and incubated in HBSS essentially as described in Examples 3 and 5. CHO-K1 cells stably expressing a human HCN4 channel were plated and incubated in HBSS essentially as described in Example 6. Varying concentrations of ZD7288 were added to HBSS for each of the test wells to determine the dose response of cells expressing HCN1 or HCN4 channels. The percent inhibition of hyperpolarization was calculated for a single dose using the following equation:
The data were fit with a Hill equation as described by the ratio 1/(1+([test agent]/IC50)^k, where IC50 is the concentration of a test agent required to inhibit one-half of the maximum current and k is the Hill coefficient.
Similarly, ZD7288 IC50 values on HCN4 channel were determined in a set of two experiments. […] No statistical difference was found between the two experiments.

[2] = target: T2, human HCN2 channel (Homo sapiens, UniProt Q9UL51); assay: MPSD FLIPR 384 assay on HEK-293H clones expressing HCN2; format: cell-based; settings: 30 μM ZD7288
T2 construct: expressed in transfected cells; host or cells: HEK-293H (clones #4, #8, #11, #12)
T2 sequence (Q9UL51 1-889): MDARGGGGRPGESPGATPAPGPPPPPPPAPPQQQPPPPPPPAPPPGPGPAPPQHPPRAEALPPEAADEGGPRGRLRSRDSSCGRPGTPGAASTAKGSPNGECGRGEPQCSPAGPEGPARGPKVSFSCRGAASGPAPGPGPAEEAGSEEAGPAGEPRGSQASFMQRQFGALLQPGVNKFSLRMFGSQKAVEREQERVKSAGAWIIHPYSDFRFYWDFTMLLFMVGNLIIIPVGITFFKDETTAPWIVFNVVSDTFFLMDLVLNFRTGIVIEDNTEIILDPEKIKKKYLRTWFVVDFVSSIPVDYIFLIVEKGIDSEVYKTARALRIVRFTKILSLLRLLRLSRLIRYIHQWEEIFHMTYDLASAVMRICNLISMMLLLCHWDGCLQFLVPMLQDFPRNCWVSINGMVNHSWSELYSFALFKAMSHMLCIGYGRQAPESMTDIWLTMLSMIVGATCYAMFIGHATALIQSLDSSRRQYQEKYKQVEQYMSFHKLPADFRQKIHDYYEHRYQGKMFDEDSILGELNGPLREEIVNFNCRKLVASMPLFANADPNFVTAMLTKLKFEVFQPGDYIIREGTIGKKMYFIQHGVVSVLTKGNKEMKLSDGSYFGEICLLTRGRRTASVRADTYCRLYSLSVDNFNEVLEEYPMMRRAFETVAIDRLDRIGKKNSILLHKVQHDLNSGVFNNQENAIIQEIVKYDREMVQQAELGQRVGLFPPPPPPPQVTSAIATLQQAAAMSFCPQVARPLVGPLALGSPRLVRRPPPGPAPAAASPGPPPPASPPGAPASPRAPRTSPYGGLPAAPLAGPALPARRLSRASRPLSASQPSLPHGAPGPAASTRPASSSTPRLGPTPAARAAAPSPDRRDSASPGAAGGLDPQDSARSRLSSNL
Description: HEK-293H cells were transfected with constructs encoding a human HCN2 channel essentially as described in Example 1. Cell lines were generated from a single clone according to standard protocols. The cells were incubated in HBSS/MPSD (control cells) or HBSS/MPSD and 30 μM ZD7288 (test cells) using a 384 well plate format, followed by the addition of the sodium/potassium diluent solution essentially as described in Examples 3 and 5. FIGS. 14A-14D show the effect of ZD7288 on each of the four clones expressing HCN2 channels. FIGS. 14A (clone #4), 14B (clone #8), 14C (clone #11), and 14D (clone #12) each depict the change in fluorescence over time for cells incubated in saline only (overlaid lower traces ) and for cells incubated in saline containing the HCN channel inhibitor ZD7288 (overlaid upper traces ). […] The Z-factor was between 0.56 and 0.64, and the covariance (CV) was between from 6.6 to 9.9.

CCN(c1ccccc1)c1cc(=NC)n(C)c(C)n1.Cl [ZD7288]
IC50 ([1]; CHO-K1, group 1, n=8, mean ± 2.31 μM, read-out: IC50 mean, group 1): 9.07 µM | IC50 ([1]; CHO-K1, group 2, n=8, mean ± 2.61 μM, read-out: IC50 mean, group 2): 9.06 µM | blockade of hyperpolarization for each of the HCN2 clones ([2]; 384 well, clones #4, #8, #11, #12): effectively blocked hyperpolarization | Δfluorescence (saline + ZD7288), Mean ([2]; Clone #4, saline only −24421): −2392 RFU | Δfluorescence (saline + ZD7288), Mean ([2]; Clone #8, saline only −23600): −3006 RFU | Δfluorescence (saline + ZD7288), Mean ([2]; Clone #11, saline only −25477): −2413 RFU | Δfluorescence (saline + ZD7288), Mean ([2]; Clone #12, saline only −26367): −4834 RFU
